This is an account of results in patent US8796303B2, “Imidazo[2,1-G][1,7]naphthyridines for treating respiratory syncytial virus infections” (Biota Scientific Management Pty Ltd., priority 2010, dated 2014).

Values after ≈ are worked out from the molar mass of the structure shown. Like-named read-outs stand apart in the source and are kept apart here.

In one data set the test system is RSV A2. The data set is described as follows: RSV antiviral CPE assay in HEp2 cells (MTT). In kind it is cell-based, respiratory syncytial virus. The settings on record: for activity compared with the 3-substituted isoxazol-4-yls of the present invention: comparative RSV activity; for EC50: human respiratory syncytial virus, HEp-2, 120 h, HEp2 cells, RSV A2 moi ~0.01, 5 days, CPE by MTT. Here is the method:
Compounds of the invention were tested for their antiviral activity against respiratory syncytial virus. Cytopathic effect (CPE) assays were performed essentially as described in the literature (see for example Watanabe et al, 1994, J. Virological Methods, 48:257). Serial dilutions of the test compounds were made in 96 well plates. HEp2 cells (1.0×10^4 cells/well) were infected with RSV at a low multiplicity of infection (e.g. RSV A2 at an moi of ˜0.01) and added to plates to assess antiviral activity. Uninfected HEp2 cells were used to assess compound cytotoxicity. Assays were incubated for 5 days at 37° C. in a 5% CO2 atmosphere. The extent of CPE was determined via metabolism of the vital dye 3-(4,5-dimethylthiaxol-2-yl)-2,5-diphenyltetrazolium bromide (MTT). MTT (1 mg/ml) was added to each well and plates incubated for 2 hours incubation at 37° C. Wells were aspirated, iso-propanol (200 μL) was added and absorbance values read at 540/650 nm. Compound concentrations that inhibited CPE by 50% (EC50) and developed cytotoxicity (CC50) were calculated using non-linear regression analysis. The CC50 values of the compounds tested were determined to be >5000 nM.

A short description of data set [1]: Aqueous solubility by laser nephelometry. The format is physicochemical. As to conditions: for solubility compared with the 3-substituted isoxazol-4-yls of the present invention: comparative solubility; for solubility at 30 min: kinetic from dmso stock, 1% DMSO, 30 minute incubation at 25° C., range 1.6-100. Here is the method:
Test compounds prepared in DMSO were screened in duplicate over a range of concentrations (1.6-100 ug/mL) in different aqueous media (for example pH2 or pH6.5 buffers which are relevant to the stomach and upper regions of the small intestine). Test compounds were serially diluted in 100% DMSO ranging from 10-0.16 mg/mL. These diluted compounds were then added to test plates (UV Star Griener 96 well plates) containing assay buffers with a further 1:100 dilution keeping a constant 1% DMSO concentration across the plate.

Where [2] appears, read: pH 2, simulated gastric fluid, pH2 buffer, read-out: Solubility at pH2.
Where [3] appears, read: pH 6.5, aqueous buffer, pH6.5 buffer, read-out: Solubility at pH6.5.

With `O=C(c1ccno1)N1CCN2C(=O)c3cccnc3CC12c1ccc(Cl)cc1` (stereo not drawn) [Compound 1-100, reference compound], in the data set on RSV A2, the “activity compared with the 3-substituted isoxazol-4-yls of the present invention” value is on record as “less active” and the EC50 came out at 560 nM. The “solubility compared with the 3-substituted isoxazol-4-yls of the present invention” value in data set [1] is given as “less soluble”.

In the case of `Cc1nocc1C(=O)N1CCN2C(=O)c3ncccc3CC12c1ccc(F)cc1` (stereo not drawn) [Compound 4, 10a-(4-fluorophenyl)-1-[(3-methyl-1,2-oxazol-4-yl)carbonyl]-2,3,10,10a-tetrahydroimidazo[2,1-g][1,7]naphthyridin-5(1H)-one], a half-maximal effect with RSV A2 (EC50) was put at 27.5 nM. Moreover, the solubility at 30 min in data set [1] (setting [2]) and in data set [1] (setting [3]) was more than 100 µg/mL each time.

`Cc1nocc1C(=O)N1CCN2C(=O)c3ncccc3CC12C1CCC(F)(F)CC1` (stereo not drawn) [Compound 12, 10a-(4,4-difluorocyclohexyl)-1-[(3-methyl-1,2-oxazol-4-yl)carbonyl]-2,3,10,10a-tetrahydroimidazo[2,1-g][1,7]naphthyridin-5(1H)-one] gave a half-maximal effective concentration (EC50) in the data set with RSV A2 of 64.4 nM. For the same compound, the solubility at 30 min in data set [1] (setting [2]) is 50 to 100 µg/mL (≈ 120 to 240 µM); in data set [1] (setting [3]), more than 100 µg/mL.

Turning to `O=C(c1ccno1)N1CCN2C(=O)c3cccc(F)c3CC12c1ccc(Cl)cc1` (stereo not drawn) [Compound 1-088, reference compound], in the data set on RSV A2, the “activity compared with the 3-substituted isoxazol-4-yls of the present invention” value was “less active” and the EC50 stood at 267 nM. The “solubility compared with the 3-substituted isoxazol-4-yls of the present invention” value in data set [1] is reported as “less soluble”. In data set [1] (setting [2]), the solubility at 30 min is 3.1 to 6.3 µg/mL (≈ 7.53 to 15.3 µM). Moreover, the solubility at 30 min in data set [1] (setting [3]) is 3.1 to 6.3 µg/mL (≈ 7.53 to 15.3 µM).

Take `Cc1nocc1C(=O)N1CCN2C(=O)c3nccnc3CC12c1ccc(Cl)cc1` (stereo not drawn) [Compound 1, 5a-(4-chlorophenyl)-6-[(3-methyl-1,2-oxazol-4-yl)carbonyl]-5a,6,7,8-tetrahydroimidazo[1′,2′:1,6]pyrido[3,4-b]pyrazin-10(5H)-one]: the midpoint of the response with RSV A2, the EC50, lay at 6.3 nM. The solubility at 30 min in data set [1] (setting [2]) and in data set [1] (setting [3]) was 50 to 100 µg/mL (≈ 122 to 244 µM) throughout.

The compound `COc1ccc(C23Cc4cccnc4C(=O)N2CCN3C(=O)c2conc2C)cc1` (stereo not drawn) [Compound 3, 10a-(4-methoxyphenyl)-1-[(3-methyl-1,2-oxazol-4-yl)carbonyl]-2,3,10,10a-tetrahydroimidazo[2,1-g][1,7]naphthyridin-5(1H)-one] gave an EC50 in the data set with RSV A2 of 83.1 nM. Besides, the solubility at 30 min in data set [1] (setting [2]) and in data set [1] (setting [3]) was more than 100 µg/mL in each case.

Regarding `Cc1nocc1C(=O)N1CCN2C(=O)c3nccnc3CC12c1ccc(F)c(F)c1` (stereo not drawn) [Compound 8, 5a-(3,4-difluorophenyl)-6-[(3-methyl-1,2-oxazol-4-yl)carbonyl]-5a,6,7,8-tetrahydroimidazo[1′,2′:1,6]pyrido[3,4-b]pyrazin-10(5H)-one], the EC50 in the data set on RSV A2 was found to be 30.5 nM. Also, the solubility at 30 min in data set [1] (setting [2]) and in data set [1] (setting [3]) was more than 100 µg/mL throughout.

Turning to `Cc1nocc1C(=O)N1CCN2C(=O)c3ncccc3CC12C1CCCCC1` (stereo not drawn) [Compound 11, 10a-cyclohexyl-1-[(3-methyl-1,2-oxazol-4-yl)carbonyl]-2,3,10,10a-tetrahydroimidazo[2,1-g][1,7]naphthyridin-5(1H)-one], the EC50 with RSV A2 was determined as 70 nM. Further, the solubility at 30 min in data set [1] (setting [2]) and in data set [1] (setting [3]) was more than 100 µg/mL in each case.

Compound `Cc1cc(C23Cc4cccnc4C(=O)N2CCN3C(=O)c2conc2C)ccc1F` (stereo not drawn) [Compound 6, 10a-(4-fluoro-3-methylphenyl)-1-[(3-methyl-1,2-oxazol-4-yl)carbonyl]-2,3,10,10a-tetrahydroimidazo[2,1-g][1,7]naphthyridin-5(1H)-one] registered a concentration for a half-maximal effect (EC50) in the data set with RSV A2 of 6.4 nM. The solubility at 30 min was 25 to 50 µg/mL (≈ 61.5 to 123 µM) in data set [1] (setting [2]) and 50 to 100 µg/mL (≈ 123 to 246 µM) in data set [1] (setting [3]).

For the compound `Cc1oncc1C(=O)N1CCN2C(=O)c3ncccc3CC12c1ccc(F)cc1` (stereo not drawn) [Compound A, reference compound], the “drop in activity against the 3-substituted isoxazol-4-yl compound of example 4” value in the data set with RSV A2 (RSV A2 antiviral activity, compared with example 4) was “ten-fold drop in activity”. Besides, the concentration giving a half-maximal response (EC50) with RSV A2 amounted to 276 nM.

On to `Cc1nocc1C(=O)N1CCN2C(=O)c3ncccc3CC12c1ccc2c(c1)CCO2` (stereo not drawn) [Compound 14, 10a-(2,3-dihydro-1-benzofuran-5-yl)-1-[(3-methyl-1,2-oxazol-4-yl)carbonyl]-2,3,10,10a-tetrahydroimidazo[2,1-g][1,7]naphthyridin-5(1H)-one], for which the EC50 in the data set with RSV A2 was determined as 13.6 nM. The solubility at 30 min in data set [1] (setting [2]) is more than 100 µg/mL; in data set [1] (setting [3]), 50 to 100 µg/mL (≈ 120 to 240 µM).

Turning to `O=C(c1ccon1)N1CCN2C(=O)c3cccc(F)c3CC12c1ccc(Cl)cc1` (stereo not drawn) [Compound 1-086, reference compound], in the data set with RSV A2, the “activity compared with the 3-substituted isoxazol-4-yls of the present invention” value is listed as “less active” and it took 175 nM to reach a half-maximal effect (EC50). Also, the “solubility compared with the 3-substituted isoxazol-4-yls of the present invention” value in data set [1] is “less soluble”. The solubility at 30 min in data set [1] (setting [2]) is less than 1.6 µg/mL. In data set [1] (setting [3]), the solubility at 30 min is less than 1.6 µg/mL.

For the compound `Cc1nocc1C(=O)N1CCN2C(=O)c3ncccc3CC12c1ccc(F)c(F)c1` (stereo not drawn) [Compound 7, 10a-(3,4-difluorophenyl)-1-[(3-methyl-1,2-oxazol-4-yl)carbonyl]-2,3,10,10a-tetrahydroimidazo[2,1-g][1,7]naphthyridin-5(1H)-one], the EC50 in the data set on RSV A2 came to 35 nM. The solubility at 30 min is 25 to 50 µg/mL (≈ 60.9 to 122 µM) in data set [1] (setting [2]) and 50 to 100 µg/mL (≈ 122 to 244 µM) in data set [1] (setting [3]).

On to `Cc1nocc1C(=O)N1CCN2C(=O)c3nccnc3C[C@]12c1ccc(Cl)cc1` (single isomer, unassigned) [Compound 1A], for which, in the data set with RSV A2, the concentration giving a half-maximal response (EC50) was 5.2 nM. Also, the solubility at 30 min is 50 to 100 µg/mL (≈ 122 to 244 µM) in data set [1] (setting [2]) and more than 100 µg/mL in data set [1] (setting [3]).

As for `Cc1cc([C@]23Cc4cccnc4C(=O)N2CCN3C(=O)c2conc2C)ccc1F` (single isomer, unassigned) [Compound 6A], the concentration for a half-maximal effect (EC50) with RSV A2 came to 7.7 nM. In addition, the solubility at 30 min is 50 to 100 µg/mL (≈ 123 to 246 µM) in data set [1] (setting [2]) and more than 100 µg/mL in data set [1] (setting [3]).

Compound `Cc1nocc1C(=O)N1CCN2C(=O)c3nccnc3C[C@]12c1ccc(F)cc1` (single isomer, unassigned) [Compound 5A] returned an EC50 in the data set on RSV A2 of 12.4 nM. Besides, the solubility at 30 min in data set [1] (setting [2]) and in data set [1] (setting [3]) was more than 100 µg/mL in each case.

`O=C(c1ccno1)N1CCN2C(=O)c3ccccc3CC12c1ccc(Cl)cc1` (stereo not drawn) [Compound 1-025, reference compound]: in the data set on RSV A2, the “activity compared with the 3-substituted isoxazol-4-yls of the present invention” value was “less active” and a half-maximal effect (EC50) was put at 1710 nM. Besides, in data set [1], the “solubility compared with the 3-substituted isoxazol-4-yls of the present invention” value is reported as “less soluble”. Also, in data set [1] (setting [2]), the solubility at 30 min is 3.1 to 6.3 µg/mL (≈ 7.87 to 16 µM). Also, in data set [1] (setting [3]), the solubility at 30 min lay in the range of 3.1 to 6.3 µg/mL (≈ 7.87 to 16 µM).

As to `O=C(c1conc1C(F)(F)F)N1CCN2C(=O)c3ncccc3CC12c1ccc(Cl)cc1` (stereo not drawn) [Compound 13, 10a-(4-chlorophenyl)-1-{[3-(trifluoromethyl)-1,2-oxazol-4-yl]carbonyl}-2,3,10,10a-tetrahydroimidazo[2,1-g][1,7]naphthyridin-5(1H)-one], in the data set on RSV A2, the EC50 was 7 nM. For the same compound, the solubility at 30 min in data set [1] (setting [2]) and in data set [1] (setting [3]) was 50 to 100 µg/mL (≈ 108 to 216 µM) in each case.

Compound `Cc1nocc1C(=O)N1CCN2C(=O)c3ncccc3CC12c1ccccc1Cl` (stereo not drawn) [Compound 10, 10a-(2-chlorophenyl)-1-[(3-methyl-1,2-oxazol-4-yl)carbonyl]-2,3,10,10a-tetrahydroimidazo[2,1-g][1,7]naphthyridin-5(1H)-one] gave a concentration giving a half-maximal response (EC50) in the data set on RSV A2 of 36.9 nM. Moreover, the solubility at 30 min in data set [1] (setting [2]) and in data set [1] (setting [3]) was more than 100 µg/mL each time.

`Cc1nocc1C(=O)N1CCN2C(=O)c3ncccc3C[C@]12c1ccc(F)cc1` (single isomer, unassigned) [Compound 4A] came in with an EC50 with RSV A2 of 16.3 nM. For the same compound, the solubility at 30 min in data set [1] (setting [2]) and in data set [1] (setting [3]) was more than 100 µg/mL each time.

With `Cc1cc(C23Cc4nccnc4C(=O)N2CCN3C(=O)c2conc2C)ccc1F` (stereo not drawn) [Compound 9, 5a-(4-fluoro-3-methylphenyl)-6-[(3-methyl-1,2-oxazol-4-yl)carbonyl]-5a,6,7,8-tetrahydroimidazo[1′,2′:1,6]pyrido[3,4-b]pyrazin-10(5H)-one], the EC50 in the data set with RSV A2 was 9 nM. The values for the solubility at 30 min in data set [1] (setting [2]) and in data set [1] (setting [3]) were 50 to 100 µg/mL (≈ 123 to 245 µM) and more than 100 µg/mL, respectively.

`Cc1nocc1C(=O)N1CCN2C(=O)c3nccnc3CC12c1ccc(F)cc1` (stereo not drawn) [Compound 5, 5a-(4-fluorophenyl)-6-[(3-methyl-1,2-oxazol-4-yl)carbonyl]-5a,6,7,8-tetrahydroimidazo[1′,2′:1,6]pyrido[3,4-b]pyrazin-10(5H)-one]: a half-maximal response in the data set on RSV A2 (EC50) required 27.6 nM. Further, the solubility at 30 min in data set [1] (setting [2]) and in data set [1] (setting [3]) was more than 100 µg/mL each time.

For `Cc1nocc1C(=O)N1CCN2C(=O)c3ncccc3C[C@@]12c1ccc(Cl)cc1` (single isomer, unassigned) [Compound 2B], the EC50 in the data set with RSV A2 turned out to be 5000 nM.
